The assay addresses T1, Chk1 (Homo sapiens, UniProt O14757).
T1 construct: purchased Upstate Biotechnology
T1 sequence (O14757 1-476): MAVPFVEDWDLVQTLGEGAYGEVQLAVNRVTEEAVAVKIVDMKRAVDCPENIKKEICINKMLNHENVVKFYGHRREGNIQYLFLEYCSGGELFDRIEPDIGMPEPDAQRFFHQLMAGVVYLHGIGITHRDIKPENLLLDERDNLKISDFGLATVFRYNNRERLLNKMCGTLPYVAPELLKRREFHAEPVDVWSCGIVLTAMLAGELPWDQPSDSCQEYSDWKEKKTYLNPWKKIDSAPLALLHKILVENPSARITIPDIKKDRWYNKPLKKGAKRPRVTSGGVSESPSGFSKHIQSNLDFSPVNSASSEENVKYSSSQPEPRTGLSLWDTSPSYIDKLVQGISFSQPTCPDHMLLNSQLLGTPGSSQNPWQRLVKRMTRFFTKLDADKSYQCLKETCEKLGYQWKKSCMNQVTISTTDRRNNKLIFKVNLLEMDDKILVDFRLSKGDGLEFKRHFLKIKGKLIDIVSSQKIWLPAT
In words: Chk1 kinase assay: incorporation of γ-33P ATP into immobilized myelin basic protein. In kind it is biochemical. The note with it: read-out: Chk1 IC50. A digest of the protocol: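 Immobilized-MBP radiometric kinase assay, room temperature for 1 h; ATP 10 μM (Chk1, 10 nM enzyme) or 30 μM (Chk2, 20 nM enzyme) with 33P tracer. Values are IC50s, with Ki derived from them.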
As to `CNC(=O)c1nc(-c2cccc(C(=O)NCC3CC3)c2)cnc1N` [Example 219, 3-amino-6-(3-{[(cyclopropylmethyl)amino]carbonyl}phenyl)-N-methylpyrazine-2-carboxamide], the IC50 was in the range of 50 to 1000 nM.
For `CNC(=O)c1nc(-c2cccc(C(=O)NC3CCCC3)c2)cnc1N` [Example 220, 3-amino-6-{3-[(cyclopentylamino)carbonyl]phenyl}-N-methylpyrazine-2-carboxamide], the IC50 was in the range of 1000 to 10000 nM.
Regarding `CNC(=O)c1nc(-c2cccc(C(=O)Nc3ccc(C)cc3)c2)cnc1N` [Example 221, 3-amino-N-methyl-6-(3-{[(4-methylphenyl)amino]carbonyl}phenyl)pyrazine-2-carboxamide], the IC50 was 1000 to 10000 nM.
Consider `CNC(=O)c1nc(-c2cccc(C(=O)Nc3ccc(OC)cc3)c2)cnc1N` [Example 222, 3-amino-N-methyl-6-[3-({[4-(methyloxy)phenyl]amino}carbonyl)phenyl]pyrazine-2-carboxamide], for which the IC50 fell in the range of 50 to 1000 nM.
In the case of `CNC(=O)c1nc(-c2cccc(C(=O)NCc3ccc4c(c3)OCO4)c2)cnc1N` [Example 223, 3-amino-6-(3-{[(1,3-benzodioxol-5-ylmethyl)amino]carbonyl}phenyl)-N-methylpyrazine-2-carboxamide], the IC50 was in the range of 50 to 1000 nM.
The result for `CNC(=O)c1nc(-c2cccc(C(=O)NCc3cccc(-c4ccccc4)c3)c2)cnc1N` [Example 224, 3-amino-6-(3-{[(biphenyl-3-ylmethyl)amino]carbonyl}phenyl)-N-methylpyrazine-2-carboxamide] reads 50 to 1000 nM; that for `CNC(=O)c1nc(-c2cccc(C(=O)NC(C)(C)c3ccccc3)c2)cnc1N` [Example 225, 3-amino-N-methyl-6-(3-{[(1-methyl-1-phenylethyl)amino]carbonyl}phenyl)pyrazine-2-carboxamide], 1000 to 10000 nM.
The result for `CNC(=O)c1nc(-c2cccc(C(=O)NCc3ccc(F)cc3F)c2)cnc1N` [Example 226, 3-amino-6-[3-({[(2,4-difluorophenyl)methyl]amino}carbonyl)phenyl]-N-methylpyrazine-2-carboxamide] reads 50 to 1000 nM.
The result for `CNC(=O)c1nc(-c2cccc(C(=O)NCc3ccc(OC(F)(F)F)cc3)c2)cnc1N` [Example 227, 3-amino-N-methyl-6-(3-{[({4-[(trifluoromethyl)oxy]phenyl}methyl)amino]carbonyl}phenyl)pyrazine-2-carboxamide] reads 50 to 1000 nM; that for `CNC(=O)c1nc(-c2cccc(C(=O)NCc3ccc(F)c(C(F)(F)F)c3)c2)cnc1N` [Example 228, 3-amino-6-{3-[({[4-fluoro-3-(trifluoromethyl)phenyl]methyl}amino)carbonyl]phenyl}-N-methylpyrazine-2-carboxamide], 50 to 1000 nM.
Consider `CNC(=O)c1nc(-c2cccc(C(=O)NCc3ccc(Cl)c(C(F)(F)F)c3)c2)cnc1N` [Example 229, 3-amino-6-{3-[({[4-chloro-3-(trifluoromethyl)phenyl]methyl}amino)carbonyl]phenyl}-N-methylpyrazine-2-carboxamide], for which the IC50 lay within 50 to 1000 nM.
Regarding `CNC(=O)c1nc(-c2cccc(C(=O)NCc3ccc(N)cc3)c2)cnc1N` [Example 230, 3-amino-6-[3-({[(4-aminophenyl)methyl]amino}carbonyl)phenyl]-N-methylpyrazine-2-carboxamide], the IC50 lay within 50 to 1000 nM.
Next, `CNC(=O)c1nc(-c2cccc(C(=O)NCc3ccccc3N)c2)cnc1N` [Example 231, 3-amino-6-[3-({[(2-aminophenyl)methyl]amino}carbonyl)phenyl]-N-methylpyrazine-2-carboxamide]: 50 to 1000 nM; `CNC(=O)c1nc(-c2cccc(C(=O)NCc3cccc(N)c3)c2)cnc1N` [Example 232, 3-amino-6-[3-({[(3-aminophenyl)methyl]amino}carbonyl)phenyl]-N-methylpyrazine-2-carboxamide]: 50 to 1000 nM; `CNC(=O)c1nc(-c2cncnc2)cnc1N` [Example 233, 3-amino-N-methyl-6-pyrimidin-5-ylpyrazine-2-carboxamide]: at least 10000 nM.
The result for `CNC(=O)c1nc(-c2cccc(S(C)(=O)=O)c2)cnc1N` [Example 234, 3-amino-N-methyl-6-[3-(methylsulfonyl)phenyl]pyrazine-2-carboxamide] reads 1000 to 10000 nM; that for `CNC(=O)c1nc(-c2ccc(OC3CCCCO3)cc2)cnc1N` (stereo not shown) [Example 235, 3-amino-N-methyl-6-[4-(tetrahydro-2H-pyran-2-yloxy)phenyl]pyrazine-2-carboxamide], 50 to 1000 nM; that for `CNC(=O)c1nc(-c2ccc(O)cc2)cnc1N` [Example 236, 3-amino-6-(4-hydroxyphenyl)-N-methylpyrazine-2-carboxamide], 50 to 1000 nM.
`CNC(=O)c1nc(-c2cccc(C(=O)NCc3ccc(S(N)(=O)=O)cc3)c2)cnc1N` [Example 237, 3-amino-6-{3-[({[4-(aminosulfonyl)phenyl]methyl}amino)carbonyl]phenyl}-N-methylpyrazine-2-carboxamide]: the IC50 was in the range of 50 to 1000 nM.
The result for `CNC(=O)c1nc(-c2cccc(C(=O)NCc3ccc(N(C)C)cc3)c2)cnc1N` [Example 238, 3-amino-6-{3-[({[4-(dimethylamino)phenyl]methyl}amino)carbonyl]phenyl}-N-methylpyrazine-2-carboxamide] reads 50 to 1000 nM; that for `CNC(=O)c1nc(-c2cccc(C(=O)NCc3cccc(Br)c3)c2)cnc1N` [Example 239, 3-amino-6-[3-({[(3-bromophenyl)methyl]amino}carbonyl)phenyl]-N-methylpyrazine-2-carboxamide], 50 to 1000 nM; that for `CNC(=O)c1nc(-c2ccc(Cl)c(C(=O)NCc3ccccc3)c2)cnc1N` [Example 240, 3-amino-6-(4-chloro-3-{[(phenylmethyl)amino]carbonyl}phenyl)-N-methylpyrazine-2-carboxamide], 50 to 1000 nM.
Next, `COC(=O)c1cccc(-c2cnc(N)c(C(=O)NC3CC3)n2)c1` [Example 241, methyl 3-{5-amino-6-[(cyclopropylamino)carbonyl]pyrazin-2-yl}benzoate]: at least 10000 nM.
The result for `CCNC(=O)c1nc(-c2cccc(C(=O)OC)c2)cnc1N` [Example 242, methyl 3-{5-amino-6-[(ethylamino)carbonyl]pyrazin-2-yl}benzoate] reads 1000 to 10000 nM.
As for `CNC(=O)c1nc(-c2cccc(C(=O)NCc3cccc(C)c3C)c2)cnc1N` [Example 243, 3-amino-6-[3-({[(2,3-dimethylphenyl)methyl]amino}carbonyl)phenyl]-N-methylpyrazine-2-carboxamide], the IC50 is 50 to 1000 nM.
The result for `CNC(=O)c1nc(-c2cccc(C(=O)NCc3ccc(O)c(OC)c3)c2)cnc1N` [Example 244, 3-amino-6-{3-[({[4-hydroxy-3-(methyloxy)phenyl]methyl}amino)carbonyl]phenyl}-N-methylpyrazine-2-carboxamide] reads 50 to 1000 nM; that for `CNC(=O)c1nc(-c2cccc(C(=O)NCc3ccc(Cl)cc3C)c2)cnc1N` [Example 245, 3-amino-6-[3-({[(4-chloro-2-methylphenyl)methyl]amino}carbonyl)phenyl]-N-methylpyrazine-2-carboxamide], 50 to 1000 nM; that for `CCOc1ccccc1CNC(=O)c1cccc(-c2cnc(N)c(C(=O)NC)n2)c1` [Example 246, 3-amino-6-{3-[({[2-(ethyloxy)phenyl]methyl}amino)carbonyl]phenyl}-N-methylpyrazine-2-carboxamide], 50 to 1000 nM.
The result for `CNC(=O)c1nc(-c2cccc(C(=O)NCc3c(Cl)cccc3Oc3ccccc3)c2)cnc1N` [Example 247, 3-amino-6-{3-[({[2-chloro-6-(phenyloxy)phenyl]methyl}amino)carbonyl]phenyl}-N-methylpyrazine-2-carboxamide] reads 50 to 1000 nM; that for `CNC(=O)c1nc(-c2cccc(C(=O)NCc3cc(Cl)ccc3Cl)c2)cnc1N` [Example 248, 3-amino-6-[3-({[(2,5-dichlorophenyl)methyl]amino}carbonyl)phenyl]-N-methylpyrazine-2-carboxamide], 50 to 1000 nM.
The result for `CNC(=O)c1nc(-c2cccc(C(=O)NCc3c(OC)cccc3OC)c2)cnc1N` [Example 249, 3-amino-6-{3-[({[2,6-bis(methyloxy)phenyl]methyl}amino)carbonyl]phenyl}-N-methylpyrazine-2-carboxamide] reads 1000 to 10000 nM; that for `CNC(=O)c1nc(-c2cccc(C(=O)NCc3c(C)cccc3Cl)c2)cnc1N` [Example 250, 3-amino-6-[3-({[(2-chloro-6-methylphenyl)methyl]amino}carbonyl)phenyl]-N-methylpyrazine-2-carboxamide], 50 to 1000 nM; that for `CNC(=O)c1nc(-c2cccc(C(=O)NCc3cc(F)c(F)cc3F)c2)cnc1N` [Example 251, 3-amino-N-methyl-6-[3-({[(2,4,5-trifluorophenyl)methyl]amino}carbonyl)phenyl]pyrazine-2-carboxamide], 50 to 1000 nM.
With `CNC(=O)c1nc(-c2cccc(C(=O)NCC(C)(C)C)c2)cnc1N` [Example 252, 3-amino-6-(3-{[(2,2-dimethylpropyl)amino]carbonyl}phenyl)-N-methylpyrazine-2-carboxamide], the IC50 fell in the range of 1000 to 10000 nM.

Usually IC50 stands for the concentration needed to halve the response being measured.

The record behind these values is patent publication US7704995B2 (Exelixis, Inc., priority 2003, dated 2010).
